One compound from US9914874B2, “Composite nanoparticles including a malonic acid derivative” (3M INNOVATIVE PROPERTIES COMPANY, priority 2013, dated 2018) can be followed below.

The nature of this data set: Solubility of the malonic acid derivative in toluene. It counts as physicochemical. The conditions noted are these: based on total weight of the solution.

As for `CC(CC=C(C(=O)O)C(=O)O)CC(C)(C)C` (stereo not shown) [Example 3, 2-(3,5,5-Trimethylhexylidene)propanedioic Acid], the solubility in toluene entry is “greater than 1 weight percent”.
